# Source: publication doi:10.1101/2021.09.30.462449v1 (biorxiv, 2021)
# Legend:
# Assay in all cases: biochemical
# Details in all cases: read-out: % inhibition mean (Z'Lyte)
# MAPK13 (p38 delta) = MAPK13 (p38 delta) (Homo sapiens, UniProt O15264)
# PAK3 = PAK3 (Homo sapiens, UniProt O75914)
# AKT3 (PKB gamma) = AKT3 (PKB gamma) (Homo sapiens, UniProt Q9Y243)
# MAP3K19 (YSK4) = MAP3K19 (YSK4) (Homo sapiens, UniProt Q56UN5)
# PRKG1 = PRKG1 (Homo sapiens, UniProt Q13976)
# EPHB1 = EPHB1 (Homo sapiens, UniProt P54762)
# ROCK1 = ROCK1 (Homo sapiens, UniProt Q13464)
# HCK = HCK (Homo sapiens, UniProt P08631)
# FLT3 D835Y = FLT3 D835Y (Homo sapiens, UniProt P36888, D835Y)
# TAOK2 (TAO1) = TAOK2 (TAO1) (Homo sapiens, UniProt Q9UL54)
# FLT1 (VEGFR1) = FLT1 (VEGFR1) (Homo sapiens, UniProt P17948)
# AXL = AXL (Homo sapiens, UniProt P30530)
# [1] = molecular target: CSNK1E (CK1 epsilon) R178C (Homo sapiens, UniProt P49674, R178C)
# KIT = KIT (Homo sapiens, UniProt P10721)
# AMPK (A2/B1/G3) = AMPK (A2/B1/G3) (Homo sapiens, UniProt P54646)
# TYRO3 (RSE) = TYRO3 (RSE) (Homo sapiens, UniProt Q06418)
# Sequence of TYRO3 (RSE) (Q06418 whole entry): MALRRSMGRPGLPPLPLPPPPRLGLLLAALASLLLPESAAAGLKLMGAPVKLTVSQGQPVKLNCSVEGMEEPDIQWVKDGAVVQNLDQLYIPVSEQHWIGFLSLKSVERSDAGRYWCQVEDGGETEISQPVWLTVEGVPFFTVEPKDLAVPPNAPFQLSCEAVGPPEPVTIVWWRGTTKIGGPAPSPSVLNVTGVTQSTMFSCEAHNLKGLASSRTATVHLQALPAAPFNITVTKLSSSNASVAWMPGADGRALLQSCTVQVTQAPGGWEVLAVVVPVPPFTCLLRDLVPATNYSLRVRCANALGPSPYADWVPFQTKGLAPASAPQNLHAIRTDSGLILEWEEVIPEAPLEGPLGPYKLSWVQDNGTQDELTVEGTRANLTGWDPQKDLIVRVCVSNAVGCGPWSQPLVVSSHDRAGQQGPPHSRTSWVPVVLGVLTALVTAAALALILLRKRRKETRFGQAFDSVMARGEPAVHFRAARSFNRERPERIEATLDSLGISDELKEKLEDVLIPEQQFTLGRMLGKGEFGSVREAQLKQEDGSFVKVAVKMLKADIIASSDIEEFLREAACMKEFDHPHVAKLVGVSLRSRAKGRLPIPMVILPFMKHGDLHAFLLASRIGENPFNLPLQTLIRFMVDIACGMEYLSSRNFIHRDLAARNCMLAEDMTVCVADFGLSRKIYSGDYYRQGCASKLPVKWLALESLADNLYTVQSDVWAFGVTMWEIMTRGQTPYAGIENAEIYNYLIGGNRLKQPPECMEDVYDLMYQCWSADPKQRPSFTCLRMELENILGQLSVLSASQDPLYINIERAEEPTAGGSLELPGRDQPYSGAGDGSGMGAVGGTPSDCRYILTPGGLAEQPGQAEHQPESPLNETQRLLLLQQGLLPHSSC
# CSNK1A1 (CK1 alpha 1) = CSNK1A1 (CK1 alpha 1) (Homo sapiens, UniProt P48729)
# HIPK4 = HIPK4 (Homo sapiens, UniProt Q8NE63)
# LCK = LCK (Homo sapiens, UniProt P06239)
# Sequence of LCK (P06239 whole entry): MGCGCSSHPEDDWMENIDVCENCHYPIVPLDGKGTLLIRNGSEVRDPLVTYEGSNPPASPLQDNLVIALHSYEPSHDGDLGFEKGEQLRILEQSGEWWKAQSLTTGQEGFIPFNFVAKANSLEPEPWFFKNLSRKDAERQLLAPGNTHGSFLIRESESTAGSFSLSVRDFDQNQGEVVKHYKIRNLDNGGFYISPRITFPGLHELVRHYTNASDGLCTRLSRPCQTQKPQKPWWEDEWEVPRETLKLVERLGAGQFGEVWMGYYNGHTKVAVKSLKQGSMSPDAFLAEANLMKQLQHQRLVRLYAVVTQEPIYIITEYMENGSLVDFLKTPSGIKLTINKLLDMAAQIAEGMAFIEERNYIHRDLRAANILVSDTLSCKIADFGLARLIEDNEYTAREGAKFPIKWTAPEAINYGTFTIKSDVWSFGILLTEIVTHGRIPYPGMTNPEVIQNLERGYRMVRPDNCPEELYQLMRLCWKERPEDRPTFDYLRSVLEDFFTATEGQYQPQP
# FGFR4 = FGFR4 (Homo sapiens, UniProt P22455)
# Sequence of FGFR4 (P22455 whole entry): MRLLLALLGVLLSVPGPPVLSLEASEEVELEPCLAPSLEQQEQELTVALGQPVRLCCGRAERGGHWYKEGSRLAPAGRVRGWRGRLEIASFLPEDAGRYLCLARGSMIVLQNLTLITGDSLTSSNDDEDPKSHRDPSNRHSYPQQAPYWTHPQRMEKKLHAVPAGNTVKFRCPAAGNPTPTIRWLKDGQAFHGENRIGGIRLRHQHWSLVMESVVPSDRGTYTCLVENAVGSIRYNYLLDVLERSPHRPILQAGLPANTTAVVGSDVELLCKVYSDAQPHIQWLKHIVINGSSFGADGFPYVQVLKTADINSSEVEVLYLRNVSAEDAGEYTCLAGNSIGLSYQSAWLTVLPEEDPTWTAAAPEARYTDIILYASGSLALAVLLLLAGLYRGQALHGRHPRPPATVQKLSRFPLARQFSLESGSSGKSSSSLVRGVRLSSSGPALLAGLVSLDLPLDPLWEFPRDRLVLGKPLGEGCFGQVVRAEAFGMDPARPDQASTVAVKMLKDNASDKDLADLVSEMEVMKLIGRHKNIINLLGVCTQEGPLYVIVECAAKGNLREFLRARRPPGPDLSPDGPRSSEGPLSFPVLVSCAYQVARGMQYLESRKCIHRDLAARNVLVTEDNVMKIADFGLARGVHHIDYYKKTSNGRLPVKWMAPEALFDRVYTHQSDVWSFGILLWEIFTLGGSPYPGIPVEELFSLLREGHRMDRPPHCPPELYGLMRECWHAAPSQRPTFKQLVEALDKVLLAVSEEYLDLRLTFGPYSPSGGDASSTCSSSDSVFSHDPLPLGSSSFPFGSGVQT
# PEAK1 = PEAK1 (Homo sapiens, UniProt Q9H792)
# RPS6KA4 (MSK2) = RPS6KA4 (MSK2) (Homo sapiens, UniProt O75676)
# EPHA2 = EPHA2 (Homo sapiens, UniProt P29317)
# PRKCQ (PKC theta) = PRKCQ (PKC theta) (Homo sapiens, UniProt Q04759)
# EPHA4 = EPHA4 (Homo sapiens, UniProt P54764)
# CHEK2 (CHK2) = CHEK2 (CHK2) (Homo sapiens, UniProt O96017)
# RPS6KA1 (RSK1) = RPS6KA1 (RSK1) (Homo sapiens, UniProt Q15418)
# EGFR (ErbB1) L861Q = EGFR (ErbB1) L861Q (Homo sapiens, UniProt P00533, L861Q)
# RPS6KB1 (p70S6K) = RPS6KB1 (p70S6K) (Homo sapiens, UniProt P23443)
# Sequence of PRKG1 (Q13976 whole entry): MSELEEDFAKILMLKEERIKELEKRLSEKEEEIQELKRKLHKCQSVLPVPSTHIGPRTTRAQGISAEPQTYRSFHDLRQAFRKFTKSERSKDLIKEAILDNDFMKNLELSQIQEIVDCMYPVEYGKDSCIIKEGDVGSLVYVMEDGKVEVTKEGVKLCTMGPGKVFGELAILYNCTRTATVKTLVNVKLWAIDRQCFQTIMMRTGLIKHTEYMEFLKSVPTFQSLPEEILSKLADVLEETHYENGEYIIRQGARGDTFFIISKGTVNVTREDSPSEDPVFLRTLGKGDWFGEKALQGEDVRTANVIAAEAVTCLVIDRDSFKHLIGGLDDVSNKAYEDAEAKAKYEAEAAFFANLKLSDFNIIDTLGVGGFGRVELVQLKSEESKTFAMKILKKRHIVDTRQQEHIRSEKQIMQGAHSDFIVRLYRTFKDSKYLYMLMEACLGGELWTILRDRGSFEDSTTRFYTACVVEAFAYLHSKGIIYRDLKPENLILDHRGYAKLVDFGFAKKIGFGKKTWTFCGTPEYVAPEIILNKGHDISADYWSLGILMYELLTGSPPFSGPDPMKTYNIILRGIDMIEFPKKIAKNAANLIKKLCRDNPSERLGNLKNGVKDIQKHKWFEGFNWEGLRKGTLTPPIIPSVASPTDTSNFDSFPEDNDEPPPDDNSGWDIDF
# Sequence of MAP3K19 (YSK4) (Q56UN5 whole entry): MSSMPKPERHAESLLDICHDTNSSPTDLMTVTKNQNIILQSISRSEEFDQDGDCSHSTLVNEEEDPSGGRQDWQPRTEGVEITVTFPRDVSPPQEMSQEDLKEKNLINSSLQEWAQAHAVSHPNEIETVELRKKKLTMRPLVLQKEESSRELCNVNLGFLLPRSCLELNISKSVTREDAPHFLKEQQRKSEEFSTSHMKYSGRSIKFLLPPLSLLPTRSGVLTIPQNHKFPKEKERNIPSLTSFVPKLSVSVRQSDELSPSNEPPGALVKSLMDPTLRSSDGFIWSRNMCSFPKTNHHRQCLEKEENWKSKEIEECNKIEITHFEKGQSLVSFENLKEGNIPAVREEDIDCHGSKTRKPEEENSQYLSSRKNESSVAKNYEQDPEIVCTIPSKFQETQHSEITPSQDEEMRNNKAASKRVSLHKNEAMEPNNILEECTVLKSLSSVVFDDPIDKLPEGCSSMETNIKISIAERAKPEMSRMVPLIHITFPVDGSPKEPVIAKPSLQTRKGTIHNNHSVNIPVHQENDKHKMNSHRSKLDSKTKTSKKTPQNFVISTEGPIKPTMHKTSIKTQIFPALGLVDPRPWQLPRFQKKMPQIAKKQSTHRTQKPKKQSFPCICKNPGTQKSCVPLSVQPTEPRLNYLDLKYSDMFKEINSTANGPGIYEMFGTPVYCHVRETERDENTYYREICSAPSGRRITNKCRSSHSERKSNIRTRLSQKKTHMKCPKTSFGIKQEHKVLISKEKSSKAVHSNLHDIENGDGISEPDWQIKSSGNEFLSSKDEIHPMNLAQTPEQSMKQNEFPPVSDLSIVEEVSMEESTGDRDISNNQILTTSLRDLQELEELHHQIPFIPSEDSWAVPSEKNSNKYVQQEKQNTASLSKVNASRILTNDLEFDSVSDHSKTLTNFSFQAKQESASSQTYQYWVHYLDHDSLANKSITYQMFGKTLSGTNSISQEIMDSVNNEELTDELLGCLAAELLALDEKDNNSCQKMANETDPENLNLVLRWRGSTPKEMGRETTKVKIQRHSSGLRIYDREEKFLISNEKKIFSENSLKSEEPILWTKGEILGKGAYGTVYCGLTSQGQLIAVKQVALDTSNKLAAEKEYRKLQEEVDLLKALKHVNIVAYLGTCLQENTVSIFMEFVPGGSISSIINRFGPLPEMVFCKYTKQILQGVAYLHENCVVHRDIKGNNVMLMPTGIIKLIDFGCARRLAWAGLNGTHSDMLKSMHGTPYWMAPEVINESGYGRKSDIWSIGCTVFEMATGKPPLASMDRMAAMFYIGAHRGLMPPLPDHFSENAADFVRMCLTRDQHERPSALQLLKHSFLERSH
# Sequence of AKT3 (PKB gamma) (Q9Y243 whole entry): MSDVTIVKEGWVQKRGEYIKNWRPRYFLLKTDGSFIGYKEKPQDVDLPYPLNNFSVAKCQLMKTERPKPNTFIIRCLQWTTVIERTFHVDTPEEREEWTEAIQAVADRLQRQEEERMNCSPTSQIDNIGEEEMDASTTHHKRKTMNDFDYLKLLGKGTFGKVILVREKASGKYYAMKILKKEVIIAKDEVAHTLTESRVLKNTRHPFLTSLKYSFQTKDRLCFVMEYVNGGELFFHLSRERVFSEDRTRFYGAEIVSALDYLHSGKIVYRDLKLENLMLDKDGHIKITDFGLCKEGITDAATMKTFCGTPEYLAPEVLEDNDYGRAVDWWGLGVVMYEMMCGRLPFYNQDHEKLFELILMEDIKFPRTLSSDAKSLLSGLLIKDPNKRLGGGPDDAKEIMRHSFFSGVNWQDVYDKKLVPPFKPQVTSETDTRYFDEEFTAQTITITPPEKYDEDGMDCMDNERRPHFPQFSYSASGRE
# Sequence of MAPK13 (p38 delta) (O15264 whole entry): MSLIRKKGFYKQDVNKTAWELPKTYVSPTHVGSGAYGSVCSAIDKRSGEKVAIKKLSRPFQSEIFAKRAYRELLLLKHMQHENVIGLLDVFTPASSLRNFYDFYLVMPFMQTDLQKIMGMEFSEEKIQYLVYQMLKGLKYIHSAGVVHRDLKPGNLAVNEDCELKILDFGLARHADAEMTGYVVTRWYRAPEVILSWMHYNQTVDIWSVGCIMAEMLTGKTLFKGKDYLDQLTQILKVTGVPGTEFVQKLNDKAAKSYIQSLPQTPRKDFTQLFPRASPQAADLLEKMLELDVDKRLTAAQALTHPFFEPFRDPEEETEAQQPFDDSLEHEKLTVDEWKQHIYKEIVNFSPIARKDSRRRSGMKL
structure (smiles),measurement,setting,value
"COc1ccc2nc3cc(Cl)ccc3c(Nc3cc(CN4CCCC4)c(O)c(CN4CCCC4)c3)c2n1 [Pyronaridine, 4-[(7-Chloro-2-methoxybenzo[b][1,5]naphthyridin-10-yl)amino]-2,6-bis(1-pyrrolidinylmethyl)phenol phosphate (1:4)]",inhibition at 1 µM,MAPK13 (p38 delta),5%
same,inhibition at 1 µM,PAK3,-7%
same,inhibition at 1 µM,AKT3 (PKB gamma),7%
same,inhibition at 1 µM,MAP3K19 (YSK4),3%
same,inhibition at 1 µM,PRKG1,-6%
same,inhibition at 1 µM,EPHB1,2%
same,inhibition at 1 µM,ROCK1,2%
same,inhibition at 1 µM,HCK,4%
same,inhibition at 1 µM,FLT3 D835Y,2%
same,inhibition at 1 µM,TAOK2 (TAO1),-1%
same,inhibition at 1 µM,FLT1 (VEGFR1),-6%
same,inhibition at 1 µM,AXL,1%
same,inhibition at 1 µM,[1],1%
same,inhibition at 1 µM,KIT,-2%
same,inhibition at 1 µM,AMPK (A2/B1/G3),2%
same,inhibition at 1 µM,TYRO3 (RSE),-5%
same,inhibition at 1 µM,CSNK1A1 (CK1 alpha 1),5%
same,inhibition at 1 µM,HIPK4,5%
same,inhibition at 1 µM,LCK,12%
same,inhibition at 1 µM,FGFR4,-14%
same,inhibition at 1 µM,PEAK1,1%
same,inhibition at 1 µM,RPS6KA4 (MSK2),-4%
same,inhibition at 1 µM,EPHA2,5%
same,inhibition at 1 µM,PRKCQ (PKC theta),8%
same,inhibition at 1 µM,EPHA4,-2%
same,inhibition at 1 µM,CHEK2 (CHK2),0%
same,inhibition at 1 µM,RPS6KA1 (RSK1),-1%
same,inhibition at 1 µM,EGFR (ErbB1) L861Q,-4%
same,inhibition at 1 µM,RPS6KB1 (p70S6K),3%
